Laboratory results published in patent US8952021B2, “Compounds for the prevention and treatment of cardiovascular disease” (Resverlogix Corp., priority 2009, dated 2015).

Tests used:
ApoA-I mRNA = assay: Quantification of ApoA-I mRNA in HepG2 cells (real-time PCR); format: cell-based; design: key: Active: An active compound was defined as one that caused a ≧20% increase in ApoA-I mRNA at a concentration less than or equal to 100 μM; conditions: fold induction relative to DMSO control, concentration less than or equal to 100 μM
Protocol: In this example, ApoA-I mRNA in tissue culture cells was quantitated to measure the transcriptional up-regulation of ApoA-I when treated with a compound of the invention.
HepG2 cells (approximately 2×10^5 per well) were placed in a 24-well plate in approximately 400 μL MEM, supplemented with 0.5% (v/v) FBS, 24 h before addition of the compound of interest. At time of harvesting, the spent media was removed from the HepG2 cells and immediately placed on ice (for immediate use) or at −80° C. (for future use) in ApoA-I and albumin ELISAs. The cells remaining in the plate wells were rinsed in 200 μL PBS. PBS was carefully removed to avoid removing any loosely attached cells.
Once the PBS was removed, 85 μL cell lysis solution was added the cells in each well and incubated for 5-10 minutes at room temperature, to allow for complete cell lysis and detachment. mRNA was then prepared using the “mRNA Catcher PLUS plate” from Invitrogen, according to the protocol supplied. After the last wash, as much wash buffer as possible was aspirated without allowing the wells to dry. Elution Buffer (E3, 80 μL) was then added to each well. mRNA was then eluted by incubating the mRNA Catcher PLUS plate with Elution Buffer for 5 minutes at 68° C. and then immediately placing the plate on ice.
The eluted mRNA isolated was then used in a one-step real-time […] reaction, using components of the Ultra Sense Kit together with Applied Biosystems primer-probe mixes. Real-time PCR data was analyzed, using the Ct values, to determine the fold induction of each unknown sample, relative to the control (that is, relative to the control for each independent DMSO concentration).
An active compound was defined as one that caused a ≧20% increase in ApoA-I mRNA at a concentration less than or equal to 100 μM.

subjects with low HDL-C = conditions: cited from earlier work

| SMILES | Effect on ApoA-I mRNA levels (ApoA-I mRNA) | melting point [°C] | increase in the HDL-C level (subjects with low HDL-C) [%] | reduction of the CHD risk (subjects with low HDL-C) [%] |
| --- | --- | --- | --- | --- |
| Cc1cc(-c2nc3ccccc3c(=O)n2-c2ccc(I)cc2)cc(C)c1OCCO [Example 8, 2-(4-(2-hydroxyethoxy)-3,5-dimethylphenyl)-3-(4-iodophenyl)quinazolin-4(3H)-one] | Active | 101 to 103 |  |  |
| COc1ccc2nc(-c3cc(C)c(OCCO)c(C)c3)n(-c3ccc(Br)cc3)c(=O)c2c1 [Example 16, 3-(4-bromophenyl)-2-(4-(2-hydroxyethoxy)-3,5-dimethylphenyl)-6-methoxyquinazolin-4(3H)-one] | Active | 160 to 162 |  |  |
| Cc1cc(-c2nc3ccccc3c(=O)n2-c2ccc(F)cc2)cc(C)c1OCCO [Example 7, 3-(4-fluorophenyl)-2-(4-(2-hydroxyethoxy)-3,5-dimethylphenyl)quinazolin-4(3H)-one] | Active | 95 to 97 |  |  |
| Cc1cc(-c2nc3ccccc3c(=O)n2-c2ccc(C(C)C)cc2)cc(C)c1OCCO [Example 18, 2-(4-(2-hydroxyethoxy)-3,5-dimethylphenyl)-3-(4-isopropylphenyl)quinazolin-4(3H)-one] | Active | 160 to 162 |  |  |
| Cc1cc(-c2nc3ccccc3c(=O)n2-c2ccc(Br)cc2)ccc1OCCO [Example 19, 3-(4-bromophenyl)-2-(4-(2-hydroxyethoxy)-3-methylphenyl)quinazolin-4(3H)-one] | Active | 92 to 93 |  |  |
| Cc1cc(-c2nc3ccccc3c(=O)n2-c2ccc(Cl)cc2)cc(C)c1OCCO [Example 10, 3-(4-chlorophenyl)-2-(4-(2-hydroxyethoxy)-3,5-dimethylphenyl)quinazolin-4(3H)-one] | Active | 101 to 103 |  |  |
| CCC(C)c1ccc(-n2c(-c3cc(C)c(OCCO)c(C)c3)nc3c(OC)cccc3c2=O)cc1 (centres unmarked) [Example 14, 3-(4-sec-butylphenyl)-2-(4-(2-hydroxyethoxy)-3,5-dimethylphenyl)-8-methoxyquinazolin-4(3H)-one] | Active | 158 to 159 |  |  |
| CCC(C)c1ccc(-n2c(-c3cc(C)c(OCCO)c(C)c3)nc3cc(S(C)(=O)=O)ccc3c2=O)cc1 (centres unmarked) [Example 12, 3-(4-sec-butylphenyl)-2-(4-(2-hydroxyethoxy)-3,5-dimethylphenyl)-7-(methylsulfonyl)quinazolin-4(3H)-one] | Active | 235 to 237 |  |  |
| CCC(C)c1ccc(-n2c(-c3cc(C)c(OCCO)c(C)c3)nc3ccc(OC)cc3c2=O)cc1 (centres unmarked) [Example 13, 3-(4-sec-butylphenyl)-2-(4-(2-hydroxyethoxy)-3,5-dimethylphenyl)-6-methoxyquinazolin-4(3H)-one] | Active | 152 to 154 |  |  |
| CCC(C)c1ccc(-n2c(-c3cc(C)c(OCCO)c(C)c3)nc3ccncc3c2=O)cc1 (centres unmarked) [Example 5, 3-(4-sec-butylphenyl)-2-(4-(2-hydroxyethoxy)-3,5-dimethylphenyl)pyrido[4,3-d]pyrimidin-4(3H)-one] | Active | 195 to 196 |  |  |
| Cc1cc(-c2nc3c(Cl)cccc3c(=O)n2-c2ccc(Br)cc2)cc(C)c1OCCO [Example 20, 3-(4-bromophenyl)-8-chloro-2-(4-(2-hydroxyethoxy)-3,5-dimethylphenyl)quinazolin-4(3H)-one] | Active | 185 to 186 |  |  |
| CCC(C)c1ccc(-n2c(-c3cc(C)c(OCCO)c(C)c3)nc3ccc(S(C)(=O)=O)cc3c2=O)cc1 (centres unmarked) [Example 15, 3-(4-sec-butylphenyl)-2-(4-(2-hydroxyethoxy)-3,5-dimethylphenyl)-6-(methylsulfonyl)quinazolin-4(3H)-one] | Active | 258.8 to 260.2 |  |  |
| COc1cccc2c(=O)n(-c3ccc(Br)cc3)c(-c3cc(C)c(OCCO)c(C)c3)nc12 [Example 17, 3-(4-bromophenyl)-2-(4-(2-hydroxyethoxy)-3,5-dimethylphenyl)-8-methoxyquinazolin-4(3H)-one] | Active | 100 to 102 |  |  |
| Cc1cc(-c2nc3ccccc3c(=O)n2-c2ccc(Br)cc2)cc(C)c1OCCO [Example 3, 3-(4-bromophenyl)-2-(4-(2-hydroxyethoxy)-3,5-dimethylphenyl)quinazolin-4(3H)-one] | Active | 164 to 165 |  |  |
| Cc1ccc(C)c(OCCCC(C)(C)C(=O)O)c1 [gemfibrozil] |  |  | 6 | 22 |
| CCC(C)c1ccc(-n2c(-c3cc(C)c(OCCO)c(C)c3)nc3ccccc3c2=O)cc1 (centres unmarked) [Example 1 and 2, 3-(4-sec-butylphenyl)-2-(4-(2-hydroxyethoxy)-3,5-dimethylphenyl)quinazolin-4(3H)-one] |  | 152 to 153 |  |  |
| CCC(C)c1ccc(-n2c(-c3ccc(OCCO)cc3)nc3ccccc3c2=O)cc1 (centres unmarked) [Example 6, 3-(4-sec-butylphenyl)-2-(4-(2-hydroxyethoxy)phenyl)quinazolin-4(3H)-one] | Active | 172.8 to 174.9 |  |  |
| CCC(C)c1ccc(-n2c(-c3cc(C)c(OCCO)c(C)c3)nc3ccc(F)cc3c2=O)cc1 (centres unmarked) [Example 9, 3-(4-sec-butylphenyl)-6-fluoro-2-(4-(2-hydroxyethoxy)-3,5-dimethylphenyl)quinazolin-4(3H)-one] | Active |  |  |  |
| CSc1ccc(-n2c(-c3ccc(C)nc3)nc3ccccc3c2=O)cc1 [Example 64, 2-(6-methylpyridin-3-yl)-3-(4-(methylthio)phenyl)quinazolin-4(3H)-one] | Active |  |  |  |
